Results published in ChEMBL document CHEMBL4507319 (2021).
The source made the active and inactive calls. The rule behind the calls is not given here.

Key:
[1] = biological target: Tyrosine-protein kinase FRK (Homo sapiens) (UniProt P42685); details: Compound concentration 1000.0 nM
[2] = system: Proto-oncogene tyrosine-protein kinase receptor Ret (Homo sapiens), P07949 [V804M]; details: Compound concentration 1000.0 nM
[3] = system: Tyrosine-protein kinase ABL1 (Homo sapiens), P00519 [F317L]; details: Compound concentration 1000.0 nM
[4] = biological target: Alpha-2A adrenergic receptor (Homo sapiens) (UniProt P08913); details: Compound concentration 10.0 uM
[5] = biological target: Tyrosine-protein kinase JAK1 (Homo sapiens) (UniProt P23458); details: Compound concentration 1000.0 nM
[6] = system: Epidermal growth factor receptor (Homo sapiens), P00533 [G719S]; details: Compound concentration 1000.0 nM
[7] = biological target: T1, Rhodopsin kinase GRK7 (Homo sapiens) (UniProt Q8WTQ7); details: Compound concentration 1000.0 nM
T1 sequence (whole entry): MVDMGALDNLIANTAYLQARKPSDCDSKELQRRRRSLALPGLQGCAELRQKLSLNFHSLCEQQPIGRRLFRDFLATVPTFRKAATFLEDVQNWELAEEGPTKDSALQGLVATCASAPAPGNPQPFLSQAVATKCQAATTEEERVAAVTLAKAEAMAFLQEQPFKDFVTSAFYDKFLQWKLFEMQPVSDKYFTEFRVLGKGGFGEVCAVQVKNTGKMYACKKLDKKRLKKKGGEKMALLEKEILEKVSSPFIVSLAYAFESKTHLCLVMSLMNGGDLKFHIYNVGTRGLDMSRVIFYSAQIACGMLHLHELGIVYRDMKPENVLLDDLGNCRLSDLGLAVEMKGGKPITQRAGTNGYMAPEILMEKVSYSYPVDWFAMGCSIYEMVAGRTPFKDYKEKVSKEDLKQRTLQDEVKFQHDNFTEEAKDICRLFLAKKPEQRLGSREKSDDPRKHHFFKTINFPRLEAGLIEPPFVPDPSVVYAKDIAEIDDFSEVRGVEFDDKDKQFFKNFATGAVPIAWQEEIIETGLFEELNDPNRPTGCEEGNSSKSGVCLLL

[8] = biological target: Atypical kinase COQ8A, mitochondrial (Homo sapiens) (UniProt Q8NI60); details: Compound concentration 1000.0 nM
[9] = biological target: Tyrosine-protein kinase receptor UFO (Homo sapiens) (UniProt P30530); details: Compound concentration 1000.0 nM
[10] = biological target: T2, 5'-AMP-activated protein kinase catalytic subunit alpha-1 (Homo sapiens, UniProt Q13131); test: Biochemical PRKAA1 assay with 10 µM ATP (Bayer in house)
[11] = biological target: Mitogen-activated protein kinase 8 (Homo sapiens) (UniProt P45983); details: Compound concentration 1000.0 nM
[12] = biological target: cAMP-dependent protein kinase catalytic subunit beta (Homo sapiens) (UniProt P22694); details: Compound concentration 1000.0 nM
[13] = biological target: T3, Serine/threonine-protein kinase TAO3 (Homo sapiens) (UniProt Q9H2K8); details: Compound concentration 1000.0 nM
T3 sequence (whole entry): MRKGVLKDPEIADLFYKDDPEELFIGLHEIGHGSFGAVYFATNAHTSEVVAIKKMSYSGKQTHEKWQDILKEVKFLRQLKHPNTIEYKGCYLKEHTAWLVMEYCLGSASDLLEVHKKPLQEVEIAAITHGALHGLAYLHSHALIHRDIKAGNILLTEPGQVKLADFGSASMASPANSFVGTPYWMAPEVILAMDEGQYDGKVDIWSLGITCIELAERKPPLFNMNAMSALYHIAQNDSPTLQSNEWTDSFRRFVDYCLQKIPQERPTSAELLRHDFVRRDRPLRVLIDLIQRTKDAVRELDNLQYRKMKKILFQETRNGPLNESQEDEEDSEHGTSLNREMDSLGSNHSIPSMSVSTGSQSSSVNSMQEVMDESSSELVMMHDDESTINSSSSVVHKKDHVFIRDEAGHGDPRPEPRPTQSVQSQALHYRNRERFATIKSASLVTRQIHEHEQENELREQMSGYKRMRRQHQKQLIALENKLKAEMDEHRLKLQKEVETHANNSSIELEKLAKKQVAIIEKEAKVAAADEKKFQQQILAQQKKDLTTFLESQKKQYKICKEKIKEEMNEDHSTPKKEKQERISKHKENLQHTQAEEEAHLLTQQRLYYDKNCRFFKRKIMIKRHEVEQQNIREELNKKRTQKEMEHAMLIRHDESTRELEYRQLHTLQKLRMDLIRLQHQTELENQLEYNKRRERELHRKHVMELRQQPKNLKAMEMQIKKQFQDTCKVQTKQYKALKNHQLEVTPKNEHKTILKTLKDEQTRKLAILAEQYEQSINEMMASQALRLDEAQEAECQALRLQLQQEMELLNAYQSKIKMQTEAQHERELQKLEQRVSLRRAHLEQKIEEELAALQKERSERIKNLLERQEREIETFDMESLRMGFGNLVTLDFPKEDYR

[14] = biological target: Calcium/calmodulin-dependent protein kinase type II subunit beta (Homo sapiens) (UniProt Q13554); details: Compound concentration 1000.0 nM
[15] = biological target: Serine/threonine-protein kinase RIO3 (Homo sapiens) (UniProt O14730); details: Compound concentration 1000.0 nM
[16] = biological target: Serine/threonine-protein kinase 32C (Homo sapiens) (UniProt Q86UX6); details: Compound concentration 1000.0 nM
[17] = biological target: T2, 5'-AMP-activated protein kinase catalytic subunit alpha-1; test: Cellular mechanistic pACC assay using IMR-32 neuroblastoma cells; type: cell-based
[18] = biological target: Wee1-like protein kinase (Homo sapiens) (UniProt P30291); details: Compound concentration 1000.0 nM

T2 sequence (Q13131 whole entry): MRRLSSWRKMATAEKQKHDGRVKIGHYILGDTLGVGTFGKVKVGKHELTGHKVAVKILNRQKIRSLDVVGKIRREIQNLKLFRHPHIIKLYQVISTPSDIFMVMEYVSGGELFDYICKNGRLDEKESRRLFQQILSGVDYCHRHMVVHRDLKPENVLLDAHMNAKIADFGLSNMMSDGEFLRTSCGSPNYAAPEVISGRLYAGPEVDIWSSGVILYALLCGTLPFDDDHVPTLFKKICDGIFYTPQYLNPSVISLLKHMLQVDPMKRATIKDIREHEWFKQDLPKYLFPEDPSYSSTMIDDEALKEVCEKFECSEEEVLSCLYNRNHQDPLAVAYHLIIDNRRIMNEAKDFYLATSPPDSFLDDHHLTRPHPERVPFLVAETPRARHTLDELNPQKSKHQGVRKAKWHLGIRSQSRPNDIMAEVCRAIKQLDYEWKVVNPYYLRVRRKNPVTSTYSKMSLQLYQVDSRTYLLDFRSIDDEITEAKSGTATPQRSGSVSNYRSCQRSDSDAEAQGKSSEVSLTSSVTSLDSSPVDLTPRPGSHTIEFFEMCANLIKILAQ
Sequence of Alpha-2A adrenergic receptor (Homo sapiens) (P08913 whole entry): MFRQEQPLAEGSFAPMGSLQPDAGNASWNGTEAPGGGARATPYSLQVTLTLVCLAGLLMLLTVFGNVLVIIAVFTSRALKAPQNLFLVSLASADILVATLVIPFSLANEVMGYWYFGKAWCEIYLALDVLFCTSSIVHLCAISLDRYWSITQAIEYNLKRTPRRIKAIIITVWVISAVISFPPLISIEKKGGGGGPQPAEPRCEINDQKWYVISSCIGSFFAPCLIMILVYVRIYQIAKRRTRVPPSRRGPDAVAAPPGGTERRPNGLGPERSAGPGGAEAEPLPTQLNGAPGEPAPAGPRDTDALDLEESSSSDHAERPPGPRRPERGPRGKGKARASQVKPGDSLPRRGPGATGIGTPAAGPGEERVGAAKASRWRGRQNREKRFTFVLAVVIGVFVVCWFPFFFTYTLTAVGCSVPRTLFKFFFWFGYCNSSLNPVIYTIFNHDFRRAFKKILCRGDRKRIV
Sequence of Calcium/calmodulin-dependent protein kinase type II subunit beta (Homo sapiens) (Q13554 whole entry): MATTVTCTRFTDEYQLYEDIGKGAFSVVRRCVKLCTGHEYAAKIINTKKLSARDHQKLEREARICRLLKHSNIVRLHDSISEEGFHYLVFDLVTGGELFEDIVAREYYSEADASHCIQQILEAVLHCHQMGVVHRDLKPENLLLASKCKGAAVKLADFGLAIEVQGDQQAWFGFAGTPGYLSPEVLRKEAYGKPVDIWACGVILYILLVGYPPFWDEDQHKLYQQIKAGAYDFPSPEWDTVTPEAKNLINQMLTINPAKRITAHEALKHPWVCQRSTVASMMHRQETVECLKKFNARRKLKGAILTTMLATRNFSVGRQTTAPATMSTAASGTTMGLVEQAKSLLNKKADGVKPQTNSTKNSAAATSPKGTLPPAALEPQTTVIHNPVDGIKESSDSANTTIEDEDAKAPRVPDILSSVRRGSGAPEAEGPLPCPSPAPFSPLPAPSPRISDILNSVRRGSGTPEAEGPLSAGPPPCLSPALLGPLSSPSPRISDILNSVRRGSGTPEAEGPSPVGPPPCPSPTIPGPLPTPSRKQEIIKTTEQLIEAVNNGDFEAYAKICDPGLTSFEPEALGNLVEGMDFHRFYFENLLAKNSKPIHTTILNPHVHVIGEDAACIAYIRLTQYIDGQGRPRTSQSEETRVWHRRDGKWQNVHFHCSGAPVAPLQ
Sequence of Atypical kinase COQ8A, mitochondrial (Homo sapiens) (Q8NI60 163-647 limits assumed): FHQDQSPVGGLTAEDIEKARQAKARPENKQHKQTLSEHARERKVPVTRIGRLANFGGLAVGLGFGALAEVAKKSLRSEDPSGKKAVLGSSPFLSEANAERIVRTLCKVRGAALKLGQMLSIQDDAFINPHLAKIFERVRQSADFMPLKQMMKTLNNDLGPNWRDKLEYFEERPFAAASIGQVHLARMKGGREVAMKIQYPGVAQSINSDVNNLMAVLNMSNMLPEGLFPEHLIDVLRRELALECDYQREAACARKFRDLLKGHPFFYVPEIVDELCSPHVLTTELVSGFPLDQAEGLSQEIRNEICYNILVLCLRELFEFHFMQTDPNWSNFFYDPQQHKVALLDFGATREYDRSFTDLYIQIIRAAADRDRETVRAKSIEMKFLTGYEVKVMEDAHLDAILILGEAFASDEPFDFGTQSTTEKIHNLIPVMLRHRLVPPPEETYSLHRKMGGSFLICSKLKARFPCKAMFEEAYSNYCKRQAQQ
Sequence of Tyrosine-protein kinase JAK1 (Homo sapiens) (P23458 whole entry): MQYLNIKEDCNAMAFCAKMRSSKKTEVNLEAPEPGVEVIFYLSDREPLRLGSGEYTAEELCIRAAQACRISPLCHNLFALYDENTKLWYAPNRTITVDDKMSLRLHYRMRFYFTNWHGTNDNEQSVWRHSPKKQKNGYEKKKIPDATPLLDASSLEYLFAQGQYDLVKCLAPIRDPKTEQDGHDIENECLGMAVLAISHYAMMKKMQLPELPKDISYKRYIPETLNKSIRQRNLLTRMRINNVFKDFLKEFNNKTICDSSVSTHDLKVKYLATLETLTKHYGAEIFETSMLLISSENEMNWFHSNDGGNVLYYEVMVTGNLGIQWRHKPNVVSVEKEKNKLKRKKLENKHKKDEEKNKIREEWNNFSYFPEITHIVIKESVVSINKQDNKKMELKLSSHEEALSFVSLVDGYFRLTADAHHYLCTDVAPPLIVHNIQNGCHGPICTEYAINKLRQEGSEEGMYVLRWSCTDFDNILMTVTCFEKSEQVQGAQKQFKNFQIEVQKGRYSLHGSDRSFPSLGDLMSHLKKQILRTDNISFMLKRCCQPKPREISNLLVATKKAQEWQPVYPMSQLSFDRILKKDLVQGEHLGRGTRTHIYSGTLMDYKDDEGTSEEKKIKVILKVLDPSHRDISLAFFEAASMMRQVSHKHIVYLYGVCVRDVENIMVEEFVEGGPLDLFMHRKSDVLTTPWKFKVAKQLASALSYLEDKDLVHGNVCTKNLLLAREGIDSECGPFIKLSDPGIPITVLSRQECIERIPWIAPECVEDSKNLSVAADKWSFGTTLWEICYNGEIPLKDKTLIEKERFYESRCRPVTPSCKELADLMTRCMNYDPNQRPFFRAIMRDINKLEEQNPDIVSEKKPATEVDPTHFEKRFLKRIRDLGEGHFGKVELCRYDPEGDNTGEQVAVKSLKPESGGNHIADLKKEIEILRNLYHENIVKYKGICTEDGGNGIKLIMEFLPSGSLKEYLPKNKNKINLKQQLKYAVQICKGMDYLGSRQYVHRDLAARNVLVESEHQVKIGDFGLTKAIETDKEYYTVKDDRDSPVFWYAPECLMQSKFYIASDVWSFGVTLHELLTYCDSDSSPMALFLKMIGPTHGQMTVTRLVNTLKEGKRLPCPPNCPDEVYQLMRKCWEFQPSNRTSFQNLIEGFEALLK
Sequence of Tyrosine-protein kinase FRK (Homo sapiens) (P42685 whole entry): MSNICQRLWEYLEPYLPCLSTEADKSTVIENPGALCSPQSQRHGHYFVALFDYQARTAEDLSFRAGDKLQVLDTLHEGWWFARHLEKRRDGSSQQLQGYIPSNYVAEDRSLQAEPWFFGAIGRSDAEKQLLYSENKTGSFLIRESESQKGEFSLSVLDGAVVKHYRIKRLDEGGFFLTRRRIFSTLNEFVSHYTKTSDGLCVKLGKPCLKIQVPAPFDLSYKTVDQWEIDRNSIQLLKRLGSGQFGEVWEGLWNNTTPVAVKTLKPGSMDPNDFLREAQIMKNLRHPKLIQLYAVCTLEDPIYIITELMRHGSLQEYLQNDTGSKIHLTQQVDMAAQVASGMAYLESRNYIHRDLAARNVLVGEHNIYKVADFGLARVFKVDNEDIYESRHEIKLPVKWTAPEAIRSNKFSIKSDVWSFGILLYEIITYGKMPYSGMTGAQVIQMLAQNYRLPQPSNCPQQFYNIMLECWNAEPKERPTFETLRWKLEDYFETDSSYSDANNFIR
Sequence of Mitogen-activated protein kinase 8 (Homo sapiens) (P45983 whole entry): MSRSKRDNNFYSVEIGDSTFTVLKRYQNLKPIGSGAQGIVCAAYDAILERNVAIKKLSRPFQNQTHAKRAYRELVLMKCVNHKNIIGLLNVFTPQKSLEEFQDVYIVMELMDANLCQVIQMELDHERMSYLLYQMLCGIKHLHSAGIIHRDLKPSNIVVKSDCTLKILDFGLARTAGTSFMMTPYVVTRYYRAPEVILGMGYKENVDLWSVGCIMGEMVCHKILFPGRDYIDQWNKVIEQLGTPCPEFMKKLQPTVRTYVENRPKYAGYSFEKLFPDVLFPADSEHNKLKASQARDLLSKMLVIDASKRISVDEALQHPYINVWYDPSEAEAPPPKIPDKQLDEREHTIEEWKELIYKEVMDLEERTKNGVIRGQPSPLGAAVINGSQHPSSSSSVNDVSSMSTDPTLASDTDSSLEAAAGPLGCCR
Sequence of Serine/threonine-protein kinase 32C (Homo sapiens) (Q86UX6 whole entry): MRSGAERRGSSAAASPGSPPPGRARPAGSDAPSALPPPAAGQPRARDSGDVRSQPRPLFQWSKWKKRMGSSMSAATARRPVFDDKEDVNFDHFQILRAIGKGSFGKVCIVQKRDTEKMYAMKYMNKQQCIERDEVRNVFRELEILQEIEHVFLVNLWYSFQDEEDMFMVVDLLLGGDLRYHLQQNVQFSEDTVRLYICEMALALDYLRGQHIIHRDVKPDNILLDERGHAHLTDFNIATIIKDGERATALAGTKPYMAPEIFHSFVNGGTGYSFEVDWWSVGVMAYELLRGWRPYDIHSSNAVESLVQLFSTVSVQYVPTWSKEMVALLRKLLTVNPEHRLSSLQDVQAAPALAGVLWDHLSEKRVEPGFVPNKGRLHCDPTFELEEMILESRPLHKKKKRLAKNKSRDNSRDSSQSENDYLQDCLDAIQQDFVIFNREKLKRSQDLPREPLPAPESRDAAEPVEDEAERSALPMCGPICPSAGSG

Row | SMILES | residual activity [1] | residual activity [2] | residual activity [3] | inhibition [4] | residual activity [5] | residual activity [6] | residual activity [7] | residual activity [8] | residual activity [9] | IC50 [10] | residual activity [11] | residual activity [12] | residual activity [13] | residual activity [14] | residual activity [15] | residual activity [16] | IC50 [17] | residual activity [18]
1 | CCc1ccccc1C(=O)Nc1n[nH]c2c(C)c(F)c(C3C(C#N)=C(C)N(C)C(C)=C3C#N)cc12 [BAY-3827] | 100% | 11% | 89% | 5.01% | 91% | 61% | 54% | 84% | 100% | 1.4 nM (active) | 71% | 99% | 38% | 73% | 45% | 100% | 150 nM | 100%
2 | CC1=C(C#N)C(c2ccc3c(c2)c(NC(=O)c2ccccc2C)nn3C)C(C#N)=C(C)N1 [BAY-974] | 100% | 91% | 91% | 14.4% | 90% | 87% | 70% | 100% | 100% | > 20000 nM (not active) | 88% | 100% | 80% | 86% | 87% | 79% | > 30000 nM (not active) | 100%
